# Literature values as cited in PMC7904743, “WIDOCK: a reactive docking protocol for virtual screening of covalent inhibitors” (Journal of Computer-Aided Molecular Design, 2021).
# Read-outs that look alike come from different tables or passages of the source.
# How the values were obtained:
# [1] = thiol reactivity, cited from earlier work
# OTUB2 = settings: experimental actives if % labeling higher than 50%; cited from earlier work
# NUDT7 = settings: protein labeling at 200 μM; experimental actives if % labeling higher than 50%; cited from earlier work
# [2] = natural log of average rate constant k
# [3] = natural logarithm of average rate constant
SMILES,"ln(avg k) [1, 2]","ln(avg k) [1, 3]",OTUB2 % labeling (OTUB2) [%],NUDT7 % labeling (NUDT7) [%]
"Cc1cc(CNC(=O)CCl)cc(C)c1O [PCM-0102431, Cc1cc(CNC(=O)CCl)cc(C)c1O]",-16.592,-16.592,64,0
"CCC1CN(C(=O)CCl)CCO1 (stereo not shown) [PCM-0102436, CCC1CN(C(=O)CCl)CCO1]",-15.658,-15.658,0,0
"CC(c1ccc(F)c(F)c1)N(C)C(=O)CCl (stereo not shown) [PCM-0102438, CC(c1ccc(F)c(F)c1)N(C)C(=O)CCl]",-16.135,-16.135,8,14
"N#Cc1c(NC(=O)CCl)sc2c1CCC2 [PCM-0102452, N#Cc1c(NC(=O)CCl)sc2c1CCC2]",-16.077,-16.077,7,0
"O=C(CCl)NCC(F)(F)F [PCM-0102456, O=C(CCl)NCC(F)(F)F]",-18.378,-18.378,0,0
"O=C(CCl)Nc1nc2c(s1)CCC2 [PCM-0102457, O=C(CCl)Nc1nc2c(s1)CCC2]",-15.357,-15.357,0,37
"N#CC1(NC(=O)CCl)CCCCCC1 [PCM-0102465, N#CC1(NC(=O)CCl)CCCCCC1]",-16.080,-16.080,0,0
"O=C(CCl)N1CCN(S(=O)(=O)c2ccccc2)CC1 [PCM-0102468, O=C(CCl)N1CCN(S(=O)(=O)c2ccccc2)CC1]",-15.364,-15.364,8,0
"O=C(CCl)N=c1sccn1Cc1ccccc1 [PCM-0102469, O=C(CCl)N=c1sccn1Cc1ccccc1]",-15.583,-15.583,11,0
"N#CCN(C(=O)CCl)c1ccccc1 [PCM-0102471, N#CCN(C(=O)CCl)c1ccccc1]",-15.586,-15.586,19,0
"O=C(CCl)N1CCNCC1 [PCM-0102476, O=C(CCl)N1CCNCC1]",-17.059,-17.059,0,0
"CC(c1ccccc1)N(C)C(=O)CCl (stereo not shown) [PCM-0102478, CC(c1ccccc1)N(C)C(=O)CCl]",-16.049,-16.049,0,10
"O=C(CCl)N1CCC(Cc2ccccc2)CC1 [PCM-0102492, O=C(CCl)N1CCC(Cc2ccccc2)CC1]",-16.081,-16.081,18,18
"O=C(CCl)NC(=O)NCc1ccco1 [PCM-0102494, O=C(CCl)NC(=O)NCc1ccco1]",-16.128,-16.128,0,0
"NC(=O)C1CCCN(C(=O)CCl)C1 (stereo not shown) [PCM-0102495, NC(=O)C1CCCN(C(=O)CCl)C1]",-15.454,-15.454,0,0
"O=C(CCl)NCc1cccnc1 [PCM-0102497, O=C(CCl)NCc1cccnc1]",-17.127,-17.127,5,0
"CC12CCC(CC1=NNC(=O)CCl)C2(C)C (stereo not shown) [PCM-0102498, CC12CCC(CC1=NNC(=O)CCl)C2(C)C]",-15.811,-15.811,0,0
"Cc1cc(NC(=O)CCl)no1 [PCM-0102500, Cc1cc(NC(=O)CCl)no1]",-15.955,-15.955,35,0
"Cc1nn(-c2ccccc2)c(C)c1NC(=O)CCl [PCM-0102501, Cc1nn(-c2ccccc2)c(C)c1NC(=O)CCl]",-16.489,-16.489,9,9
"CC(C)NC(=O)NC(=O)CCl [PCM-0102504, CC(C)NC(=O)NC(=O)CCl]",-16.238,-16.238,0,0
"O=C(CCl)Nc1ccc(Br)cc1Cl [PCM-0102505, O=C(CCl)Nc1ccc(Br)cc1Cl]",-16.521,-16.521,7,59
"O=C(CCl)Nc1ccccc1I [PCM-0102509, O=C(CCl)Nc1ccccc1I]",-16.748,-16.748,0,0
